Results on one compound are retold here after patent US5580854A, “Substrate-related peptidyl-aldehyde inhibitors of the proteolytic activity of the multicatalytic proteinase complex” (Mount Sinai School of Medicine of The City University of …, priority 1994, dated 1996).

Test [1] deals with T1, multicatalytic proteinase complex (MPC) (Bos taurus, UniProt Q2TBP0+Q32KL2+Q3MHN0).
T1 construct: The MPC was isolated from frozen bovine pituitaries; tissue PelFreeze, Inc. (Rogers, Ark.) (supplier of the tissue; the enzyme was purified in house); host or cells: bovine pituitaries
Briefly: Histone H3 degradation by the MPC, HPLC. It is filed as biochemical, bovine. Particulars: 50 μM inhibitor. As to the method: (§1) The MPC was isolated from frozen bovine pituitaries, obtained from PelFreeze, Inc. (Rogers, Ark.) essentially as described in Orlowski & Michaud, Biochemistry 28:9270-9277 (1989), incorporated herein by reference.
In vitro protein degrading activity of the MPC, and the effects of the various inhibitors of the present invention on such activity, was determined using β-casein and histone H3 as proteolytic substrates. For determining protein degrading activity in the presence and absence of inhibitors, incubation mixtures contained Tris-HCl buffer (0.05M, pH 8.0), β-casein or histone H3, 20 mM Mg^2+ where indicated, and inhibitor dissolved in dimethylsulfoxide, where indicated. In control samples, the inhibitor was replaced by an equal volume of dimethylsulfoxide alone.
In order to measure proteolysis by the MPC, and its inhibition by the inhibitors of the invention, aliquots of the reaction mixtures were removed after various incubation times and subjected to HPLC on a Deltapak column (C4; 5 μm; 300 A; 3.9×150 mm Waters). Elution of histone H3 was carried out with a linear gradient over 30 min. established between 30 and 50% acetonitrile (v/v) in water containing 0.1% trifluoroacetic acid (v/v) at a flow rate of 1 ml/min. Elution of β-casein was carried with a linear gradient established between 10 and 45% acetonitrile (v/v) in water containing 0.1% trifluoroacetic acid (v/v). The rate of protein degradation was determined by measuring the decrease of the peak height of the protein compared with controls in which the enzyme was omitted. Alternatively degradation of the proteins was determined by integrating the area under the peak of the protein at time zero and determining the decrease of the area after incubation with the enzyme.
Histone H3 used for testing the proteolytic activity of MPC was purified from a crude histone VIII S fraction (obtained from Sigma Chemical Co. St. Louis, Mo.) by HPLC. The material was applied to a Delta Pak C4-300A semipreparative column (15 μm; 7.8 mm×300 mm) equilibrated with 30% acetonitrile (v/v) in water solution, containing 0.1% trifluoroacetic acid (v/v). Elution was carried out at a flow rate of 4 ml/min with a linear, 50 min. gradient established between 30% and 50% acetonitrile (v/v) in water, each containing 0.1% trifluoroacetic acetic acid (v/v). The main protein peak was collected and the solvent was removed under reduced pressure. The protein was dissolved in water at a concentration of 1.85 mg/ml and used for experiments. The purified histone H3 was subjected to HPLC on an analytical Deltapak column (C4; 5 μm; 300 A; 3.9×150 mm; Waters) with a linear gradient established between 30 and 50% acetonitrile (v/v) in water, containing 0.1% trifluoroacetic acid (v/v). […]

In test [2] the target is T2, SNAAP component of the multicatalytic proteinase complex (MPC) (Bos taurus, UniProt Q2TBP0+Q32KL2+Q3MHN0).
T2 construct: The MPC was isolated from frozen bovine pituitaries; tissue PelFreeze, Inc. (Rogers, Ark.) (supplier of the tissue; the enzyme was purified in house); host or cells: bovine pituitaries
The test is described as follows: Activity of the SNAAP component of the MPC, coupled two step reaction with aminopeptidase N; Ki by Dixon plots. The format is biochemical, bovine. The conditions noted are these: substrate Cbz-Gly-Pro-Ala-Gly-Gly-pAB (1 to 4 mill); mean of 3 to 6 experiments ± SEM.
Source text: as §1
Cbz-Gly-Pro-Ala-Leu-Gly-pAB and Cbz-Gly-Pro-Ala-Gly-Gly-pAB, where pAB is p-aminobenzoate, were used as convenient substrates for the determination of the activity of the BrAAP and SNAAP components respectively. The BrAAP component cleaves exclusively the Leu-Gly bond in Cbz-Gly-Pro-Ala-Leu-Gly-pAB, whereas the SNAAP component cleaves the Gly-Gly bond in Cbz-Gly-Pro-Ala-Gly-Gly-pAB.
A coupled two step reaction in the presence of excess aminopeptidase N (AN) was used for the determination of the BrAAP and SNAAP activities as described previously (Orlowski et al., Biochemistry 32:1563-1572 (1993)). Aminopeptidase N was purified from hog kidneys as described by Pfleiderer, Meth. Enzymol. 19:514-521 (1970) and freed from the contaminating metalloendopeptidase (EC 3.4.24.11) as previously described (Almenoff & Orlowski, Biochemistry 22:590-599 (1983)).
Inhibition constant (K1) values for the inhibitors of the present invention towards the various proteolytic activities of the MPC were determined by the method of Dixon, Biochem. J. 55:170-171 (1953). Plots of 1/v vs [I] were made at three (3) different synthetic substrate concentrations and six (6) different inhibitor concentrations [I]. Linear regression analysis gave generally correlation coefficients better than 0.99.
Inhibition was tested with and without preincubation of the MPC with the inhibitors of the invention. No increase in inhibition was observed after preincubation of the enzyme with the inhibitor for up to 30 min, indicating absence of slow binding phenomena and a rapid equilibration between enzyme and inhibitor.
Table II provides a summary of the Ki measurements for the various peptidyl aldehydes of the invention synthesized in accordance with Examples 2 and 3.

Where two headings read alike, the source gives them in different places. Peptide text beside a SMILES is read from it. * marks the point of attachment. Cbz = O=C(OCc1ccccc1)*

Turning to `CC(C)C[C@@H](C=O)NC(=O)[C@H](Cc1ccccc1)NC(=O)[C@@H]1CCCN1C(=O)CNC(=O)OCc1ccccc1` [Cbz-Gly-Pro-Phe-Leu-CHO] (Cbz-GPFL-aldehyde), the inhibition at 50 µM in test [1] (all histone H3 concentrations, read-out: inhibition of the rate of histone H3 degradation) was around 80%; in test [1] (histone H3 185 μg/ml, MPC 2.5 μg, read-out: Inhibition, histone H3 degradation) it was 77%; in test [1] (histone H3 370 μg/ml, MPC 2.5 μg, read-out: Inhibition, histone H3 degradation), 76%; in test [1] (histone H3 740 μg/ml, MPC 2.5 μg, read-out: Inhibition, histone H3 degradation), 86%. The same compound displayed a Ki in test [2] of 2300 ± 240 nM.
